Publication PMC7857480 (The Journal of Biological Chemistry, 2020)

Target: FigA (Francisella tularensis, UniProt Q15EH0)
Conditions: FigA alone; citrate, 2.25 mM ATP, 15 mM MgCl2, 50 mM HEPES pH 7.4, RT 2 h

FigA, sequence (Q15EH0 1-639): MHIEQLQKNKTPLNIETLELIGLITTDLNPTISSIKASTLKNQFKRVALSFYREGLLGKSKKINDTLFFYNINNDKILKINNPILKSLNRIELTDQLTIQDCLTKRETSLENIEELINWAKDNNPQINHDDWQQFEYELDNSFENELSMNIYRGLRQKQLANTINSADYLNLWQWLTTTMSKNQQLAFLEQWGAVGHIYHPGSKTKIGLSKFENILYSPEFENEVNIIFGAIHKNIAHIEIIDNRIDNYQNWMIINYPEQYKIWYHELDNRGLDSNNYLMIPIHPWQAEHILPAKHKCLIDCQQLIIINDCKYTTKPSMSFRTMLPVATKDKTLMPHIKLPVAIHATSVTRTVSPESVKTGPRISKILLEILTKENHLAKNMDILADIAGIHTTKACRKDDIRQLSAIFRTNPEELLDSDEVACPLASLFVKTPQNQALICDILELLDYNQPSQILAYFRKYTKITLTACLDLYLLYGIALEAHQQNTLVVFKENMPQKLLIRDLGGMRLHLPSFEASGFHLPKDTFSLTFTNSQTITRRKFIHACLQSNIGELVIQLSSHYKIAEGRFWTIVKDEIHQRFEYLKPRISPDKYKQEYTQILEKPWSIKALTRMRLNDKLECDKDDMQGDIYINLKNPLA

NCCC[C@H](N)C(=O)O [L-ornithine]
in vitro assay, LC-MS of N-citrylornithine (m/z 307.1): FigA alone assayed with citrate and L-ornithine assay were analyzed by LC-MS
